Assay results reported in patent publication US20100311827A1, “Chlorogenic acid derivatives and their use as anti-fungal agents” (priority 2006, published 2010).
≈ marks a conversion by molar mass, not a printed value.

Experiments:
[1] = tested on: Candida albicans (ATCC90028); assay: Broth dilution anti-fungal susceptibility (NCCLS M27-A2), MIC; type: cell-based; conditions: Candida albicans, ATCC90028, Table 1; MICs read at 80% inhibition; 35° C., 18 to 24 hours; tested 0.12 to 64 μg/ml
Description: (§1) The anti-fungal activity of the compounds according to the invention were evaluated against Candida albicans (ATCC90028), Cryptococcus neoformans (ATCC32045), and Aspergillus fumigatus (ATCC13073) according to NCCLS guidelines (NCCLS reference method for broth dilution anti-fungal susceptibility testing of yeasts; approved standard-second edition, M27-A2, National Committee for Clinical Laboratory Standards, Villanova, Pa. 2003; and NCCLS reference method for broth dilution anti-fungal susceptibility testing of filamentous fungi; approved standard, M38-A, National Committee for Clinical Laboratory Standards, Villanova, Pa. 2002).
(§2) The medium required for the evaluation of anti-fungal activity was prepared as follows. RPMI 1640 broth+MOPS, pH adjusted and filter sterilized. Sabouraud Dextrose Agar (SDA) plates were used for growing fungi.
(§3) All test or candidate compounds were prepared as 5 mg/ml stock solutions in DMSO and further diluted according to the NCCLS guidelines with sterile water or appropriate diluent. A working stock of 256 μg/ml was used to prepare 1:2 serial dilutions in 96-well plates.
(§4) The inoculums of fungi were prepared by making a direct sterile water suspension of colonies/spores from SDA plates. 0.1% Tween 20 was used for A. fumigatus for better dispersal of spores in suspension. For C. albicans and C. neoformans overnight cultures were used. A. fumigatus required longer incubation. Each fungal suspension was adjusted to read between 70 and 75% transmittance at 530 nm (0.5 McFarland Standard). These suspensions were further diluted 1/1000 in appropriate broth for inoculating the 96-well plates.
(§5) All plates were incubated at 35° C. for the following times: 18 hours to 24 hours for C. albicans, 48 hours for A. fumigatus, and 48 to 72 hours for C. neoformans.

[2] = tested on: Cryptococcus neoformans (ATCC32045); assay: as above; type: cell-based; conditions: Table 1, MICs read at 80% inhibition, 35° C., 48 to 72 hours, tested 0.12 to 64 μg/ml
Description: as §1, §2, §3, §4, §5

[3] = tested on: Aspergillus fumigatus (ATCC13073); assay: Broth dilution anti-fungal susceptibility of filamentous fungi (NCCLS M38-A), MIC; type: cell-based; conditions: Table 1, MICs read at 80% inhibition, 35° C., 48 hours, tested 0.12 to 64 μg/ml
Description: as §1, §2, §3, §4, §5

[4] = tested on: brine shrimp; type: in vivo; conditions: at 100 μg/ml
Description: The general in vitro toxicity of these compounds can be tested using the Brine Shrimp Lethality assay, as described in Mclaughlin, J. L. in Methods in Plant Biochemistry. Ed. K. Hostettmann, Academic Press, London, 1991; Vol. 6, pp. 1-32. Typically, candidate compounds are diluted in seawater to a suitable concentration and added to second instar larvae of Artemia salina. After a suitable period of time, for example 24 hours, the survivors are counted. In vitro acute toxicity testing of a compound of Formula I can also be performed using mammalian cell lines (see, for example, Ekwall, B., Ann. N.Y. Acad. Sci., (1983) 407:64-77). Selection of an appropriate cell line is dependent on the potential application of the candidate compound and can be readily determined by one skilled in the art.
To test the general toxicity of these compounds, Brine Shrimp Lethality assay was carried out according to Mclaughlin, J. L. in Methods in Plant Biochemistry. Ed. K. Hostettmann, Academic Press, London, 1991; Vol. 6, pp. 1-32. The compounds were tested at 100 μg/ml.

| Compound | MIC [1] [µg/mL] | MIC [2] [µg/mL] | MIC [3] [µg/mL] | % BL (brine shrimp lethality) [4] [%] |
| --- | --- | --- | --- | --- |
| CCCCCCCCOc1ccc(NC(=O)C(CO)NC(=O)C2(O)CC(O)C(O)C(OC(=O)/C=C/c3ccc(O)c(O)c3)C2)cc1 (stereo not drawn) [Compound 11] | > 64 | 4 (≈ 6.2 µM) | > 64 | 18.8 |
| CCCCCCCCOc1ccc(NC(=O)C(CC(=O)O)NC(=O)C2(O)CC(O)C(O)C(OC(=O)/C=C/c3ccc(O)c(O)c3)C2)cc1 (stereo not drawn) [Compound 13] | 64 (≈ 95.1 µM) | 16 (≈ 23.8 µM) | > 64 | 6.3 |
| CCCCCCCCOc1ccc(NC(=O)C(CCCN)NC(=O)C2(O)CC(O)C(O)C(OC(=O)/C=C/c3ccc(O)c(O)c3)C2)cc1 (stereo not drawn) [Compound 14] | 4 (≈ 5.95 µM) | 1 (≈ 1.49 µM) | 16 (≈ 23.8 µM) | 37.5 |
| CCCCCCCCOc1ccc(NC(=O)C(CCCNC(=O)OC(C)(C)C)NC(=O)C2(O)CC(O)C(O)C(OC(=O)CCc3ccc(O)c(O)c3)C2)cc1 (stereo not drawn) [Compound 15] | > 64 | 4 (≈ 5.17 µM) | > 64 | 21.1 |
| CCCCCCCCOc1ccc(NC(=O)C(CCCNC(=O)OC(C)(C)C)NC(=O)C2(O)CC(OC(=O)/C=C/c3ccc(O)cc3)C3OC(C)(C)OC3C2)cc1 (stereo not drawn) [Compound 17] | > 64 | > 64 | > 64 | 0.0 |
| CCCCCCCCOc1ccc(NC(=O)C(CCCNC(=O)OC(C)(C)C)NC(=O)C2(O)CC(O)C(O)C(OC(=O)/C=C/c3ccc(O)cc3)C2)cc1 (stereo not drawn) [Compound 18] | > 64 | > 64 | > 64 | 31.6 |
| CCCCCCCCOc1ccc(NC(=O)C(CCCNC(=O)OC(C)(C)C)NC(=O)C2(O)CC(OC(=O)C(CCc3ccc(O)cc3)NC(=O)OCC3c4ccccc4-c4ccccc43)C3OC(C)(C)OC3C2)cc1 (stereo not drawn) [Compound 20] | > 64 | > 64 | > 64 | 10.5 |
| CCCCCCCCOc1ccc(NC(=O)C(CCCNC(=O)OC(C)(C)C)NC(=O)C2(O)CC(OC(=O)C(N)CCc3ccc(O)cc3)C3OC(C)(C)OC3C2)cc1 (stereo not drawn) [Compound 21] | > 64 | > 64 | > 64 | 47.7 |
| CCCCCCCCOc1ccc(NC(=O)C(CCCNC(=O)OC(C)(C)C)NC(=O)C2(O)CC(O)C(O)C(OC(=O)C(N)CCc3ccc(O)cc3)C2)cc1 (stereo not drawn) [Compound 22] | > 64 | 4 (≈ 5.08 µM) | > 64 | 36.8 |

More lines, in order of falling MIC [1], values ahead:

| MIC [1] [µg/mL] | MIC [2] [µg/mL] | MIC [3] [µg/mL] | Compound | % BL (brine shrimp lethality) [4] [%] |
| --- | --- | --- | --- | --- |
| 64 (≈ 93.2 µM) | 2 (≈ 2.91 µM) | > 64 | CCCCCCCCOc1ccc(NC(=O)C(CCCN)NC(=O)C2(O)CC(O)C(O)C(OC(=O)C(N)CCc3ccc(O)cc3)C2)cc1 (stereo not drawn) [Compound 23] | 73.7 |
| 16 (≈ 23.7 µM) | 8 (≈ 11.9 µM) | 64 (≈ 95 µM) | CCCCCCCCOc1ccc(NC(=O)C(CCCN)NC(=O)C2(O)CC(O)C(O)C(OC(=O)CCc3ccc(O)c(O)c3)C2)cc1 (stereo not drawn) [Compound 16] | 10.5 |
| 8 (≈ 12.2 µM) | 4 (≈ 6.1 µM) | 32 (≈ 48.8 µM) | CCCCCCCCOc1ccc(NC(=O)C(CCCN)NC(=O)C2(O)CC(O)C(O)C(OC(=O)/C=C/c3ccc(O)cc3)C2)cc1 (stereo not drawn) [Compound 19] | 100 |
| 0.25 (≈ 0.816 µM) | 0.5 (≈ 1.63 µM) | > 64 | OC(Cn1cncn1)(Cn1cncn1)c1ccc(F)cc1F [Fluconazole, reference compound] | – |
